ChEMBL document CHEMBL3734669, “Δ(5)-Cholenoyl-amino acids as selective and orally available antagonists of the Eph-ephrin system” (Eur J Med Chem, 2015)

What was measured:
[1] = Cytotoxicity against human PC3 cells at 10 to 30 uM after 2 hrs by LDH release assay; type: cell-based; details: pc-3, 2 h
[2] = AUC (0 to t) in mouse at 30 mg/kg, po administered as single dose by HPLC-MS analysis; type: ADME, organism-based; details: in vivo
[3] = target: T1, Ephrin type-B receptor 1 (Homo sapiens) (UniProt P54762); assay: (§1) Displacement of biotinylated ephrin-B1-Fc from EphB1 (unknown origin) preincubated for 1 hr followed by biotinylated-ephrin-B1-Fc addition measured after 4 hrs by ELISA
T1 sequence (whole entry): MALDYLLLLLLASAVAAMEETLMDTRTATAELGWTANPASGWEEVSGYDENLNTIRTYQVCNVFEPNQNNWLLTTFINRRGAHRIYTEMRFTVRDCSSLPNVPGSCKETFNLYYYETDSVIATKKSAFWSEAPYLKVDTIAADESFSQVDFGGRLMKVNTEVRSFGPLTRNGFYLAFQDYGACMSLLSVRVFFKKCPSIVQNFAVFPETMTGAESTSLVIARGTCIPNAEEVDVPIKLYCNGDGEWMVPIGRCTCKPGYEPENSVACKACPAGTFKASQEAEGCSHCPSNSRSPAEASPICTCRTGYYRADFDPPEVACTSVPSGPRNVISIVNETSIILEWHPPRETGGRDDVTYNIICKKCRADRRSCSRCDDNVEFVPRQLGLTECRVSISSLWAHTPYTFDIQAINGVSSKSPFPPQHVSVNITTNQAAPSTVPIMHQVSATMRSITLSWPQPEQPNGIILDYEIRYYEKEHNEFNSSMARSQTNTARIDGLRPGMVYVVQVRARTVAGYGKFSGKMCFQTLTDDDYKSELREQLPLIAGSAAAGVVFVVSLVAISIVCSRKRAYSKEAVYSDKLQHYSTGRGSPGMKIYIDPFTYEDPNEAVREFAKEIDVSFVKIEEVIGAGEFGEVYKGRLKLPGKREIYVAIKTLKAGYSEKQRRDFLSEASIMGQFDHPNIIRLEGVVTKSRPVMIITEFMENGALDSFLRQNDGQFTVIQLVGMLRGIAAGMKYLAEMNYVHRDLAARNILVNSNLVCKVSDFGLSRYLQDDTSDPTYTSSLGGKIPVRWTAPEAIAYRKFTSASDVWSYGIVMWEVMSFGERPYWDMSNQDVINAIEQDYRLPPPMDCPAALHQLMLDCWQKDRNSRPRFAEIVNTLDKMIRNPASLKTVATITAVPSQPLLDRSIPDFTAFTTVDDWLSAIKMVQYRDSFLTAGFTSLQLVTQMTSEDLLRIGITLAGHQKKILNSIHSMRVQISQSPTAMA

Ephrin type-B receptor 1 = target: T2, Ephrin type-B receptor 1 (Homo sapiens, UniProt P54762); assay: as §1
T2 sequence (P54762 whole entry): T1 sequence (whole entry)

[4] = Cmax in mouse at 30 mg/kg, po administered as single dose by HPLC-MS analysis; type: ADME, organism-based; set-up: dose 30 mg/kg, route oral; details: in vivo
Ephrin type-A receptor 4 = Ephrin type-A receptor 4 (Homo sapiens, UniProt P54764); assay: Displacement of biotinylated ephrin-A1-Fc from EphA4 (unknown origin) preincubated for 1 hr followed by biotinylated-ephrin-A1-Fc addition measured after 4 hrs by ELISA
Ephrin type-A receptor 5 = Ephrin type-A receptor 5 (Homo sapiens, UniProt P54756); assay: Displacement of biotinylated ephrin-A1-Fc from EphA5 (unknown origin) preincubated for 1 hr followed by biotinylated-ephrin-A1-Fc addition measured after 4 hrs by ELISA
[5] = target: T3, Ephrin type-B receptor 6 (Homo sapiens) (UniProt O15197); assay: (§2) Displacement of biotinylated ephrin-B1-Fc from EphB6 (unknown origin) preincubated for 1 hr followed by biotinylated-ephrin-B1-Fc addition measured after 4 hrs by ELISA
T3 sequence (whole entry): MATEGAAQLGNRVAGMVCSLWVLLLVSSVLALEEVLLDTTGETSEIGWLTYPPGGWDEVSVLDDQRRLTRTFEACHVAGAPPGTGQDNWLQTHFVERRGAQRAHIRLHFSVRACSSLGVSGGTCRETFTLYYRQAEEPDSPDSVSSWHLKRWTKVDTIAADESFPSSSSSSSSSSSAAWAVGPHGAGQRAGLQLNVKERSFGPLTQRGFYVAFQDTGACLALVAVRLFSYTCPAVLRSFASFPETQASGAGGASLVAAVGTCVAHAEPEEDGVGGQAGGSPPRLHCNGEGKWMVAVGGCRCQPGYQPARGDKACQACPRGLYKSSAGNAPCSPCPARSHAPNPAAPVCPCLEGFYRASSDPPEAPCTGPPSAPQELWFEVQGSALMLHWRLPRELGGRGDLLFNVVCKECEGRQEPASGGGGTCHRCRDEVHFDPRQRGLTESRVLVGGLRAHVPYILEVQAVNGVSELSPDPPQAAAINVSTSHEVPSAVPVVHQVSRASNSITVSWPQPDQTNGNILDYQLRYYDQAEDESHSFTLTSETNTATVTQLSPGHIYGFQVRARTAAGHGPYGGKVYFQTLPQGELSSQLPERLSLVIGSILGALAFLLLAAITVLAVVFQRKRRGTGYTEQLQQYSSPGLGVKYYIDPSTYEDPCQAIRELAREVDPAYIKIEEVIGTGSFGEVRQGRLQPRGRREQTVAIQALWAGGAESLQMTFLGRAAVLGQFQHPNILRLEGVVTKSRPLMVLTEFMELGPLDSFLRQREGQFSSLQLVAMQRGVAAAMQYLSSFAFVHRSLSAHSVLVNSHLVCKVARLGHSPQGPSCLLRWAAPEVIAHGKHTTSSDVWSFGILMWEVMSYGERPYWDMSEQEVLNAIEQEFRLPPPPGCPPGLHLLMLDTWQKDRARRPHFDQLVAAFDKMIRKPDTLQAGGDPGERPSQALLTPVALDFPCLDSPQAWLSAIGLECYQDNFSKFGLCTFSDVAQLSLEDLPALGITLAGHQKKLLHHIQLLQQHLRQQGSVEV

Ephrin type-B receptor 6 = target: T4, Ephrin type-B receptor 6 (Homo sapiens, UniProt O15197); assay: as §2
T4 sequence (O15197 whole entry): T3 sequence (whole entry)

[6] = n-octanol-water distribution coefficient, log D of the compound at pH 7.4 after 4 hrs by shake-flask method; type: physicochemical

Chain of Ephrin type-A receptor 4 (P54764 whole entry): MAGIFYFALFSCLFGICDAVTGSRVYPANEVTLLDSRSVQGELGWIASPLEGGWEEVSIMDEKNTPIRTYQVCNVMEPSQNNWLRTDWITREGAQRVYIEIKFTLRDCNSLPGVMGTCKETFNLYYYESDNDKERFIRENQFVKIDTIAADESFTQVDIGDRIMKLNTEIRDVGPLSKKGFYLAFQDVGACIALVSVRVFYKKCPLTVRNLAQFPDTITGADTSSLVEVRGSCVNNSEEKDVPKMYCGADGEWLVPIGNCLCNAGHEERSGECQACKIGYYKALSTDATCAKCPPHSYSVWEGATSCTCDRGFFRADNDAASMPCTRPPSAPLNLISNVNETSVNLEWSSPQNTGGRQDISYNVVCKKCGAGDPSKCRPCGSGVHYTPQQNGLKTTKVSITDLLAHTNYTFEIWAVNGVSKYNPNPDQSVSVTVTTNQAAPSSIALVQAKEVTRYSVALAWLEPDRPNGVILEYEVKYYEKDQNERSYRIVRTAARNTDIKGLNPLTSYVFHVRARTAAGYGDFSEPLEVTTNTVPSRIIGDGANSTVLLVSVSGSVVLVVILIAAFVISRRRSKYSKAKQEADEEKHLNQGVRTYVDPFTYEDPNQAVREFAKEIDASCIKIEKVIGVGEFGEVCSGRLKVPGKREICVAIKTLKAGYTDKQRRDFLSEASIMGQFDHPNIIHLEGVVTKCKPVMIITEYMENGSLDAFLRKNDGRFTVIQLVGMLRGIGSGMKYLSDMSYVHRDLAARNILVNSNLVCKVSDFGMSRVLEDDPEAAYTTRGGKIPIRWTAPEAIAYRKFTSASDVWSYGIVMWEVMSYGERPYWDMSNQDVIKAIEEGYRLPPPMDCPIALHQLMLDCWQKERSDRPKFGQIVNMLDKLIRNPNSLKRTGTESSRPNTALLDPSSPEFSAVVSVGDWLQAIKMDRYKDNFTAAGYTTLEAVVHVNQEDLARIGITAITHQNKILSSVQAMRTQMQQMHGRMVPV
Chain of Ephrin type-A receptor 5 (P54756 whole entry): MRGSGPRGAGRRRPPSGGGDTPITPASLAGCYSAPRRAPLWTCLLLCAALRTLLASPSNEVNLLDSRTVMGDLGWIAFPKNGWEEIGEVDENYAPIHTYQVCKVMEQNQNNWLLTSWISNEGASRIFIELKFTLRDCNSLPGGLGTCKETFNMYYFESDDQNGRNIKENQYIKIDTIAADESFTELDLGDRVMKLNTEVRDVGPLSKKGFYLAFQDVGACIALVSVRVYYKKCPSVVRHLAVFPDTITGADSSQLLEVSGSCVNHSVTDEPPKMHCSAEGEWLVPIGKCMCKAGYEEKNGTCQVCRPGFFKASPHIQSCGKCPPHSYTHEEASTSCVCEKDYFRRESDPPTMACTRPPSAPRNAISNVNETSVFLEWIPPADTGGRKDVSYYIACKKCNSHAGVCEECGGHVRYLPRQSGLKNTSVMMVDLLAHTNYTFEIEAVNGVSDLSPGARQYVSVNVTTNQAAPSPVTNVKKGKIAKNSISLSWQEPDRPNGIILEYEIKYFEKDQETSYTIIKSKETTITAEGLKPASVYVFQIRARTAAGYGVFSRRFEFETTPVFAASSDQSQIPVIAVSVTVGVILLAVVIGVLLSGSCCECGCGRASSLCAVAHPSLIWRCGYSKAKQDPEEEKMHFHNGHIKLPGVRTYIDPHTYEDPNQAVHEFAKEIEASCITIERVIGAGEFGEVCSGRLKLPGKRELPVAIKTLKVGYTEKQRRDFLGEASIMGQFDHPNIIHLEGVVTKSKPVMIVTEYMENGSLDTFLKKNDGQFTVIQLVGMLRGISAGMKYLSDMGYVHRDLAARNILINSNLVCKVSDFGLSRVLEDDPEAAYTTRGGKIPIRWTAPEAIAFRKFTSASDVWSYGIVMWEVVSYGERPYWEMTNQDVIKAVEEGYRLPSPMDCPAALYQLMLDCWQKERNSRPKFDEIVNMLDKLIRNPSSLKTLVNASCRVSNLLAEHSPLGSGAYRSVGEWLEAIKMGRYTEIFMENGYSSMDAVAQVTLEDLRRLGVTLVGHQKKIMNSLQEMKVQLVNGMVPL

For `C[C@H](CCC(=O)N[C@@H](Cc1c[nH]c2ccccc12)C(=O)O)[C@H]1CC[C@H]2[C@@H]3CC=C4C[C@@H](O)CC[C@]4(C)[C@H]3CC[C@]12C`, which Activity [1] is on record?
The Activity was “Non-toxic”.

What about the AUC(0-t) [2] of the same molecule?
Its AUC(0-t) is 573 ng·h/mL.

What about the inhibition [3] of the same molecule?
Its inhibition is “Dose-dependent effect”.

What about the IC50 (Ephrin type-B receptor 1) of the same molecule?
The IC50 was 2.5 µM.

And the Cmax [4]?
The Cmax was 1400 nM.

And the IC50 (Ephrin type-A receptor 4)?
Its IC50 is 3.8 µM.

And the inhibition (Ephrin type-A receptor 4)?
The inhibition was “Dose-dependent effect”.

What about the IC50 (Ephrin type-A receptor 5) of the same molecule?
The IC50 was 2.6 µM.

What about the inhibition (Ephrin type-A receptor 5) of the same molecule?
The inhibition was “Dose-dependent effect”.

And the inhibition [5]?
The inhibition was “Dose-dependent effect”.

What about the IC50 (Ephrin type-B receptor 6) of the same molecule?
Its IC50 is 3.3 µM.

And the logD at 4 h [6]?
The logD at 4 h was 4.01.
